Assay in all cases: growth of human tumour cells (NCI), 48 h
Assay [1] concerns K562.
In assay [2] the test system is NCI/ADR-RES.
Assay [3] has as its system NCI-H226.
The test system of assay [4] is LOX IMVI.
Assay [5] concerns SK-OV-3.
For assay [6], the system named is SF-268.
The subject of assay [7] is SNB-75.
The subject of assay [8] is UACC-257.
Assay [9] has as its system MCF7.
Assay [10] has as its system SK-MEL-5.
Assay [11] concerns A498.
Assay [12] deals with CAKI-1.
Assay [13] concerns HCT-15.
Assay [14] deals with OVCAR-4.
Assay [15] deals with NCI-H460.
The test system of assay [16] is SK-MEL-28.
The subject of assay [17] is SF-295.
For assay [18], the system named is SW-620.
Assay [19] relates to COLO 205.
Assay [20] has as its system HCT-116.

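Assay format: 96-well plates, 48-hour exposure. At the GI50, growth is halved.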 Activity calls are given as the source filed them. Cut-off read from the data, not from the text of the source: active = GI50 up to about 1.1 µM and inactive = higher.

In the case of `CN(C)CCNC(=O)c1cc(Cl)cc2ccc(-c3ccccc3)nc12`, the GI50 was 1.78 µM (inactive) in assay [1]; 2.51 µM (inactive) in [2]; 2.49 µM (inactive) in assay [3]; 2.32 µM (inactive) in assay [4]; 3.13 µM (inactive) in assay [5]; 4.57 µM (inactive) in [6]. The GI50 in assay [7] is 1.86 µM (inactive); in assay [8], 2.92 µM (inactive); in [9], 1.82 µM (inactive); in assay [10], 1.87 µM (inactive); in [11], 5.48 µM (inactive); in assay [12], 2.04 µM (inactive). Also, the GI50 in [13] is 2.85 µM; in [14], 3.92 µM (inactive); in [15] it was 2 µM (inactive); in [16] it was 4.83 µM (inactive); in assay [17], 3.86 µM (inactive); in [18], 2.32 µM (inactive). The results for the GI50 in [19] and in assay [20] were 1.6 µM (inactive) and 2.18 µM (inactive), respectively.
Take `C=CCc1cccc(/C=N\N/C(N)=N/O)c1O`: the GI50 in [1] is 3.3 µM (inactive); in [2], 2.23 µM (inactive); in assay [3], 3.18 µM (inactive); in assay [4], 3.29 µM (inactive); in [5], 4.84 µM (inactive); in assay [6], 3.03 µM (inactive). The GI50 in assay [7] was 4.43 µM (inactive); in [8], 4.62 µM (inactive); in assay [9], 2.56 µM (inactive); in assay [10], 3.76 µM (inactive); in [11], 7.76 µM (inactive); in assay [12], 3.46 µM (inactive). Besides, the GI50 in assay [13] was 2.19 µM; in assay [14], 5.16 µM (inactive); in assay [15], 3.2 µM (inactive); in assay [16] it was 11.9 µM (inactive); in assay [17] it was 2.31 µM (inactive); in [18], 6.52 µM (inactive). Further, the values for the GI50 in assay [19] and in [20] were 5.01 µM (inactive) and 5.33 µM (inactive), respectively.
With `O=[N+]([O-])c1ccccc1S(=O)(=O)c1cccc2c1NCCC2`, the GI50 in [1] is 21.3 µM (inactive); in assay [2] it was 29 µM (inactive); in assay [3] it was 91 µM (inactive); in assay [4] it was 39.1 µM (inactive); in assay [5], 68.4 µM (inactive); in assay [6] it was > 100 µM (inactive). For the same molecule, the GI50 in [7] was 14.8 µM (inactive); in [8] it was 18 µM (inactive); in assay [9] it was 38.4 µM (inactive); in assay [10], 19.7 µM (inactive); in assay [11], > 100 µM (inactive); in assay [12] it was 63.5 µM (inactive). The GI50 is 35 µM in assay [13]; > 100 µM (inactive) in assay [14]; 44.2 µM (inactive) in assay [15]; 45.6 µM (inactive) in assay [16]; 31.5 µM (inactive) in [17]; > 100 µM (inactive) in assay [18]. In addition, the GI50 was 60.8 µM (inactive) in assay [19] and 42.7 µM (inactive) in [20].
`CC(=O)OC1CC2(O)C(CCC3(C)C(c4ccc(=O)oc4)CCC32O)C2(C)C1=CC(O)C1OC12` (stereo not given): the GI50 in assay [1] was 0.0467 µM (active); in [2], 0.0378 µM (active); in assay [3], 0.115 µM (active); in assay [4], 0.0687 µM (active); in [5], 0.0843 µM (active); in assay [6] it was 0.0295 µM (active). The GI50 in assay [7] is 0.0624 µM (active); in [8], 0.0441 µM (active); in assay [9] it was 0.0552 µM (active); in assay [10], 0.025 µM (active); in assay [11], 0.113 µM (active); in assay [12], 0.0324 µM (active). Besides, the GI50 in assay [13] was 0.053 µM; in assay [14], 0.0457 µM (active); in assay [15], 0.0279 µM (active); in assay [16], 0.0621 µM (active); in assay [17], 0.0366 µM (active); in assay [18] it was 0.0387 µM (active). In addition, the GI50 in assay [19] was 0.0726 µM (active); in assay [20] it was 0.0296 µM (active).
